Data taken from US5008252A, “Process for inhibiting herpes simplex virus-specified thymidine kinase” (The University of North Carolina at Chapel Hill, priority 1987, dated 1991).
Values joined by “and” are separate entries in the source; they are usually repeats but may differ in a detail not shown here. Equal values may be shown once. “Also recorded” adds a separate entry of the source.

Assays:
HSV-1 (KOS) dThd kinase = HSV-1 (KOS) dThd kinase (Human alphaherpesvirus 1 strain KOS, UniProt P17402); experiment: dThd kinase assay in vitro; format: biochemical, HSV-1 (strain KOS)
Source text: (§1) Enzyme purification, enzyme assays, IC50 and Ki determinations. The cellular cytosolic dThd kinase used to determine the Ki values was isolated from KB6B cells. The HSV-1 and HSV-2dThd kinases were extracted from dThd kinase-deficient HeLa BU cells infected with HSV-1 (strain KOS) and HSV-2(strain 333), respectively. All of the dThd kinases were purified using affinity column chromatography procedures described by Lee, L. S. and Cheng, Y.-C. (J. Biol. Chem. 251:2600-2604 (1976)). The dThd kinase assay used was the same as that described by Cheng, Y.-C. & Ostrander, M. (J. Biol. Chem. 251:2605-2610 (1976)). Incubations were conducted at 37° C. for 60 min and the Ki and 50% […] concentration (IC50) values were determined as described by Cheng, Y.-C. and Prusoff, W. H. (Biochem. Pharmacol. 22:3099-3108 (1976)).

HSV-2 (333) dThd kinase = target: T1, HSV-2 (333) dThd kinase (Human herpesvirus 2, UniProt P04407); experiment: dThd kinase assay in vitro; format: biochemical, HSV-2 (strain 333)
T1 construct: kinases were extracted from dThd kinase-deficient HeLa BU cells infected with HSV-1 (strain KOS) and HSV-2(strain 333); endogenous in cells; host or cells: HeLa BU cells (dThd kinase deficient) infected with HSV-2 (strain 333)
Source text: as §1

[1] = target: HSV-1 B3 dThd kinase (BVDU resistant variant) (Human alphaherpesvirus 1 strain SC16, UniProt P06479); experiment: dThd kinase assay in vitro, enzyme extracts; format: biochemical, HSV-1 (strain B3); conditions: enzyme extracts of infected HeLa BU cells, 100 μM dThd
Method: Virus stocks. The viruses used were HSV-1 (strains KOS, SC16, B3 and Tr7) and HSV-2(strain 333). dThd kinase mutants of HSV (SC16), B3 and Tr7, were isolated in the presence of (E)-5-(2-bromovinyl)-2'-deoxyuridine (BVDU) at 10 μg/ml and ACV at 1 μg/ml, respectively (Darby, G., Field, H.J. & Salisbury, S. A. (1982) Nature (London) 289:81-83; Field, H.J & Neden J. (1982) Antiviral Res. 2:243254).
as §1

[2] = target: HSV-1 (strain KOS) dThd kinase-associated dTMP kinase (Human alphaherpesvirus 1 strain KOS, UniProt P17402); experiment: dTMP (thymidylate) kinase assay, crude extracts; format: biochemical; conditions: HSV-1 KOS
Method: The thymidylate kinase and synthase assays were performed according to known procedures (see, Cheng, Y.-C. & Prusoff, W. H. (1974) Anal. Biochem. 60:545-550; Roberts, D. (1966) Biochemistry 5:3546-3548; Dolnick, B. J. & Cheng, Y. C. (1977) J. Biol. Chem. 252:7697-7703). dThd phosphorylase activity was determined by monitoring conversion of [^14 C]dThd to [14 C] thymine using high performance liquid chromatography (HPLC). Briefly, after a 30 min incubation of enzyme extract with radiolabeled dThd at 37° C., the reaction was stopped by addition of 25% trichloroacetic acid. After neutralization and centrifugation, the supernatants were loaded on to an Alltech Lichrosorb RP-18 column, and the column was eluted at a rate of 1 ml/min with 5 mM KH2 PO4 (pH 3.5)--10% methanol. Fractions of 1 ml were collected and radioactivity associated with dThd and thymine (as previously determined by retention times of authentic markers measured by their absorbance at 265 nm) was measured by scintillation counting. For evaluation of whether 5'-Et-dThd could serve substrate for dThd phosphorylase, reactions were carried out as described as above, except that 5'-Et-dThd was used instead of [^14 C]dThd; metabolites were then analyzed by HPLC as described above.

[3] = tested on: dNTP pools of HSV-1-infected HeLa BU cells; experiment: dNTP pool assay; format: cell-based
Source text: (§2) dNTP pool assay. dNTP pool measurements were done as described by Williams, M. W., Chang, C. H. and Cheng, Y.-C. (J. Biomed. Biophys. Meth. 1:153-1 62 (1979)). 5'-Et-dThd alone had no effect on the dNTP pool assay.

[4] = tested on: dTTP pool of HSV-1-infected HeLa S3 cells; experiment: dNTP pool assay; format: cell-based; conditions: 100 μM, 12 h post infection
Source text: as §2

[5] = tested on: dTTP pools of HSV-1 (strain MDK)-infected HeLa BU cells; experiment: dNTP pool assay; format: cell-based; conditions: 100 μM
Source text: as §2

[6] = tested on: mammalian host DNA synthesis; experiment: Host DNA synthesis by 32PO4 incorporation; format: cell-based; conditions: 100 μM
mammalian cell growth = experiment: Cell growth inhibition; format: cell-based
Method: Cell and virus growth inhibition. Cell growth inhibition and the virus yield assay were performed in accordance with the protocol described by Cheng, Y.-C., Grill, S.P., Ruth, J. and Bergstrom, D. E. (Antimicrob. Agents Chemother. 18:957-961 (1980)) with the exceptions that all studies were done using 5% dialyzed fetal bovine serum; the multiplicity of infection was 3 PFU/cell and Vero cells were used instead of CV-1 cells for titration in the virus yield assays.

[7] = 10 μM 5'-Et-dThd, purified enzyme, 100 μM [14C]dThd

T1 sequence (P04407 whole entry): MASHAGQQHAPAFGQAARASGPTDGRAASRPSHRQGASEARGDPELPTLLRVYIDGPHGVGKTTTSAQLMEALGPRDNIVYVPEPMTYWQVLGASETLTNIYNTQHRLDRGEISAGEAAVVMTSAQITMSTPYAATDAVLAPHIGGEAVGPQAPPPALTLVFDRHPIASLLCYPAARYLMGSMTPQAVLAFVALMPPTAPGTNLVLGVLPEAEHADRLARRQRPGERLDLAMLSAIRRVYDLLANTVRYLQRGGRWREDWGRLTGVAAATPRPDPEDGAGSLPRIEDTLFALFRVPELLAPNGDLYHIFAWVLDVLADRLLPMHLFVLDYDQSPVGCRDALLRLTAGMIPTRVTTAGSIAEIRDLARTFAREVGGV
HSV-1 (KOS) dThd kinase, sequence (P17402 whole entry, looked up): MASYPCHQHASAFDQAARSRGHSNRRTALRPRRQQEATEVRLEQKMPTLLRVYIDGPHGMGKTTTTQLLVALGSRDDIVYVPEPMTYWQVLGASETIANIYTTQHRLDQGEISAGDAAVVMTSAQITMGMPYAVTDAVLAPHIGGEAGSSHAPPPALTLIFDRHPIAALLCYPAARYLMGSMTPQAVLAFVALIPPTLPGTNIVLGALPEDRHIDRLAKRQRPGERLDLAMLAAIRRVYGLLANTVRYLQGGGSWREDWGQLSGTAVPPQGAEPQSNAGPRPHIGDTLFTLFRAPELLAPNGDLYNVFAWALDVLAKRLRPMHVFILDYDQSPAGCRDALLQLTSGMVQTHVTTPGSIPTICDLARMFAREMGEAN
HSV-1 (strain KOS) dThd kinase-associated dTMP kinase, sequence (P17402 whole entry, looked up): as above
HSV-1 B3 dThd kinase (BVDU resistant variant), sequence (P06479 whole entry, looked up, stated change not applied): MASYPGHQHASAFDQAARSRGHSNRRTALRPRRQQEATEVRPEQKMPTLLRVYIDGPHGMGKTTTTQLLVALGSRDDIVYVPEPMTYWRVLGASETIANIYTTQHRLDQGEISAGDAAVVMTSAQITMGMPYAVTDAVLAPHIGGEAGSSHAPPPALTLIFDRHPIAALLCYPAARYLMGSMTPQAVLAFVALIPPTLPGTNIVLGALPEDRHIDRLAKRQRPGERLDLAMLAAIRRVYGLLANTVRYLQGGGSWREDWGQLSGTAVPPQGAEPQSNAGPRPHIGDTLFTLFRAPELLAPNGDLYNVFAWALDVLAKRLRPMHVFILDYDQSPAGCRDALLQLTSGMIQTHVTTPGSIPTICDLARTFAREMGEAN

Substance: 5'-ethynylthymidine [5'-Et-dThd]
- inhibition of dThd kinase activity (HSV-1 (KOS) dThd kinase; [7]): 50%
- Ki (HSV-1 (KOS) dThd kinase; HSV-1 KOS, affinity column-purified dThd kinase, ± standard deviation): 0.09 µM
- IC50 (HSV-1 (KOS) dThd kinase; HSV-1 KOS, enzyme extracts of infected HeLa BU cells, 100 μM dThd): 6 µM
- type of inhibition (kinetic studies) (HSV-1 (KOS) dThd kinase; with respect to dThd): competitive inhibitor
- inhibition of dThd kinase activity (HSV-2 (333) dThd kinase; [7]): 25%
- Ki (HSV-2 (333) dThd kinase; HSV-2 333, affinity column-purified dThd kinase, ± standard deviation): 0.38 µM
- IC50 (HSV-2 (333) dThd kinase; HSV-2 333, enzyme extracts of infected HeLa BU cells, 100 μM dThd): 46 µM
- type of inhibition (kinetic studies) (HSV-2 (333) dThd kinase; with respect to dThd): competitive inhibitor
- IC50 [1]: < 10 µM and 7 µM
- IC50 of virus-associated dTMP kinase ([2]; 25 μM dTMP substrate): 0.3 µM
- IC50 of virus-associated dTMP kinase ([2]; 100 μM dTMP substrate): 0.8 µM
- effect on dTTP pool of HSV-infected mammalian cells ([3]; 100 μM): significantly decreases
- reduction of dTTP pool vs untreated infected control ([3]; 100 μM, HSV-1-infected HeLa BU cells, 12 h post infection): 95%
- effect on dATP, dCTP and dGTP pools ([3]; 9 h HSV-1 (KOS)-infected HeLa BU cells): not significantly affected; also recorded: no significant effect
- reduction of dTTP pool vs untreated infected control [4]: 80%
- inhibition of dTTP pools [5]: 45%
- effect on mammalian host DNA synthesis [6]: no effect
- inhibition of mammalian cell growth (mammalian cell growth): nor does the analog inhibit mammalian cell growth
